Experimental data from patent EP0377044B1, “PROTECTIVE AGENT FOR RADIATION HAZARD” (MITSUI TOATSU CHEMICALS, Inc., priority 1988, dated 1989).
Square brackets hold non-standard residues; d marks the D form. Peptide text beside a SMILES is read from it. pGlu = O=C1CC[C@@H](C(=O)O)N1

How the values were obtained:
Assay type in all cases: in vivo
[1] = system: animals subjected to whole body irradiation with lethal or sub-lethal doses; assay: Recovery of hematopoietic dysfunctions and immune responses after whole body irradiation (general description)
Procedure: On the other hand, animals were subjected to whole body irradiation with lethal or sub-lethal doses and changes with the lapse of time in the number of blood cells were measured for given periods of time in order to check the medicament for the promotive effect on the recovery of hematopoietic dysfunctions. Blood cells used as index included red blood cells, reticulocytes, white blood cells such as lymphocytes and neutrophils, platelets, hemoglobins, hematocrit and the like. […] Thus, as is evident from these observations, the medicament of the present invention is believed to act on hematopoietic organs, e.g. bone marrow and spleen, and exert the life span-extending or life-saving effect due to its inhibitory or recovery-promoting effect on hematopoietic dysfunctions, and it is therefore valuable as a preventive and therapeutic agent against radiation damages.

cancer-carrying mice = assay: Radiotherapeutic experiments on cancer-carrying mice; settings: pre- or post-irradiation administration
[2] = system: mice irradiated with 600R X-rays; assay: Survival of mice after whole body irradiation with 600R X-rays
Procedure: (§1) Male, 10 week-old C3H/He mice were used and groups of 10 - 15 animals each were prepared.
(§2) The mice were subjected to whole body irradiation for 8 minutes using a X-radiation unit (manufactured by Shimazu Seisaku-sho, Shin-Ai 250 II). These animals received, once per day, subcutaneous administration of 100 µg of FTS·CH₃COOH·2H₂O as used in Example 1 for consecutive 14 days. For a pre-administered group, the administration started two days before the irradiation. For a post-administered group, the first administration was effected immediately after the irradiation. As control groups, one group which received only once subcutaneous administration of 1 KE of Picibanil immediately after the irradiation and another group which received every day administration of physiological saline were prepared.
(§3) In the same manner as in Experimental Examples 1 and 2, mice were irradiated with X-rays for 6 minutes. For a period of consecutive 14 days from 2 days before irradiation, the animals were subcutaneously administered, once a day, with 100 µg/day of FTS·CH₃COOH·2H₂O as medicament.

[3] = system: mice were subjected to 600R X-radiation / 400R X-radiation; assay: Blood test in X-irradiated mice (600R and 400R); settings: for Blood parameters HCT / Blood parameters HGB / Blood parameters PLT / Blood parameters RBC / Blood parameters RET / Blood parameters WBC: pre-administration with 100 µg; for Blood parameters HCT: hematocrit value; for Blood parameters HGB: hemoglobin; for Blood parameters PLT: number of blood platelet; for Blood parameters RBC: number of red blood cells; for Blood parameters RET: number of reticulocytes; for Blood parameters WBC: number of white blood cells
Procedure: Independently of the irraditation carried out in Experimental Example 3 with mice for life/death observation, mice were subjected to 600R X-radiation to conduct a blood test on a dayly basis. Another group of mice was prepared and subjected to 400R X-radiation. Each of the 600R- and 400R-irradiated groups was further divided into two, one `group being for pre-administration with 100 µg of the above mentioned medicament and the other group serving as a control. Samples of blood were taken every day from each mouse and tested for the number white blood cells (WBC), that of red blood cells (RBC), that of reticulocytes (RET), that of blood platelet (PLT), that of hemoglobin (HGB) and hematocrit value (HCT).

ddy male mice = assay: Toxicity test, repeated subcutaneous administration to mice; settings: for toxicity: five ddy male mice of 5 weeks old
Text: Thus, the medicament of the present invention is a safe medicament of extremely low toxicity and can be administered for a long period of time.

[4] = Body weight measurement of 600R-irradiated mice; settings: for body weight (g) [Mean ± S.D.]: 600R X-ray, 100 µg/day s.c. pre-administration
Procedure: as §3
The body weight of each experimental group of mice in Experimental Example 3 was measured on consecutive days for observation of changes in weight.

[5] = system: radiation-induced cancers in mice; assay: Development of radiation-induced cancers in irradiated mice; settings: administration over a certain period
mice = assay: Whole body X-irradiation, % survival over thirty days (general description)
Procedure: The effect of the radioprotective agent of the present invention is confirmed by the experiments as described below. Thus, mice, rats, guinea pigs or the like mammals were subjected to whole body irradiation, using a X-radiation unit (Shimazu Seisaku-sho, Shin-Ai 250 II), to determine % survival over a period of thirty days. In carrying out these experiments, given amounts of the nonapeptide were administered by different routes of administration, such as intraperitoneal, intravenous, intramuscular, subcutaneous or oral route of administration, either every day or every other day over a given period of time from before or from immediately after the irradiation, to measure the body-weight of the animals and observe whether they were alive or dead.

[6] = system: mice irradiated with 900R X-rays; assay: Survival of mice after whole body irradiation with 900R X-rays
Procedure: as §1, §2
In the same manner as in Experimental Example 1, mice were subcutaneously administered, after X-radiation for 9 minutes, with 100 µg/day of FTS·CH₃COOH·2H₂O, once a day and twelve times in all, i.e. on the zero, 1st, 2nd, 3rd, 4th, 5th, 7th, 8th, 9th, 10th, 11th and 12th days.

With `C[C@H](NC(=O)[C@@H]1CCC(=O)N1)C(=O)N[C@@H](CCCCN)C(=O)N[C@@H](CO)C(=O)N[C@@H](CCC(N)=O)C(=O)NCC(=O)NCC(=O)N[C@@H](CO)C(=O)N[C@@H](CC(N)=O)C(=O)O` [medicament, pGlu-Ala-Lys-Ser-Gln-Gly-Gly-Ser-Asn] ([pGlu]AKSQGGSN-OH) the “immune responses of immunocytes (spleen cells response to Con A, thymus cells reactivity to IL-1)” value ([1]; irradiated animals, examined every day, versus control group) was “apparently higher than those for the control group”, the “immunocytes capabilities of humoral factor production (IL-1 by peritoneal macrophage, CSF by spleen cells and peritoneal macrophage)” value ([1]; irradiated animals, versus control group) was “superior to the control group” and the “reduction of blood cells due to irradiation” value ([1]; whole body irradiation with lethal or sub-lethal doses, red blood cells, reticulocytes, white blood cells, platelets, hemoglobins, hematocrit) was “markedly inhibited”. For the same compound, the “anti-cancer effect of radiotherapy” value (cancer-carrying mice) was “potentiated”, the animals survived ([2]; in 19 days, 100 µg/day s.c. 14 days from 2 days before irradiation, control four out of ten) was “ten out of ten” and the “The number of days and survivals after X-radiation 8 (days)” value ([2]; pre-administration 100 µg/day s.c., 14 days from 2 days before irradiation, day 8, 10 animals used) was 10. The “The number of days and survivals after X-radiation 9 (days)” value ([2]; pre-administration 100 µg/day s.c., 14 days from 2 days before irradiation, day 9, 10 animals used) was 10, the “The number of days and survivals after X-radiation 10 (days)” value ([2]; pre-administration 100 µg/day s.c., 14 days from 2 days before irradiation, day 10, 10 animals used) was 10 and the “The number of days and survivals after X-radiation 11 (days)” value ([2]; pre-administration 100 µg/day s.c., 14 days from 2 days before irradiation, day 11, 10 animals used) was 10. The “The number of days and survivals after X-radiation 12 (days)” value ([2]; pre-administration 100 µg/day s.c., 14 days from 2 days before irradiation, day 12, 10 animals used) was 10, the “The number of days and survivals after X-radiation 13 (days)” value ([2]; pre-administration 100 µg/day s.c., 14 days from 2 days before irradiation, day 13, 10 animals used) was 10 and the “The number of days and survivals after X-radiation 14 (days)” value ([2]; pre-administration 100 µg/day s.c., 14 days from 2 days before irradiation, day 14, 10 animals used) was 10. For the same compound, the “The number of days and survivals after X-radiation 15 (days)” value ([2]; pre-administration 100 µg/day s.c., 14 days from 2 days before irradiation, day 15, 10 animals used) was 10, the “The number of days and survivals after X-radiation 16 (days)” value ([2]; pre-administration 100 µg/day s.c., 14 days from 2 days before irradiation, day 16, 10 animals used) was 10 and the “The number of days and survivals after X-radiation 17 (days)” value ([2]; pre-administration 100 µg/day s.c., 14 days from 2 days before irradiation, day 17, 10 animals used) was 10. The “The number of days and survivals after X-radiation 18 (days)” value ([2]; pre-administration 100 µg/day s.c., 14 days from 2 days before irradiation, day 18, 10 animals used) was 10, the “The number of days and survivals after X-radiation 19 (days)” value ([2]; pre-administration 100 µg/day s.c., 14 days from 2 days before irradiation, day 19, 10 animals used) was 10 and the “The number of days and survivals after X-radiation 30 (days)” value ([2]; pre-administration 100 µg/day s.c., 14 days from 2 days before irradiation, day 30, 10 animals used) was 10. The “Blood parameters HCT” value ([3]; 400R X-rays, on the 14th day) was 29.8±1.4, the “Blood parameters HGB” value ([3]; 400R X-rays, on the 14th day) was 8.8±0.3 and the “Blood parameters PLT” value ([3]; 400R X-rays, on the 14th day) was 240.6±14.3. For the same compound, the “Blood parameters RBC” value ([3]; 400R X-rays, on the 14th day) was 522.7±21.7, the “Blood parameters RET” value ([3]; 400R X-rays, on the 14th day) was 30.0±6.5 and the “Blood parameters WBC” value ([3]; 400R X-rays, on the 14th day) was 8.7±0.4. The “Blood parameters HCT” value ([3]; 600R X-rays, on the 7th day) was 39.1±5.5, the “Blood parameters HGB” value ([3]; 600R X-rays, on the 7th day) was 12.3±1.9 and the “Blood parameters PLT” value ([3]; 600R X-rays, on the 7th day) was 372.0±174.7. For the same compound, the “Blood parameters RBC” value ([3]; 600R X-rays, on the 7th day) was 691.8±96.1, the “Blood parameters RET” value ([3]; 600R X-rays, on the 7th day) was 24.6±10.9 and the “Blood parameters WBC” value ([3]; 600R X-rays, on the 7th day) was 34.2±25.2. The “blood parameters (WBC, RBC, RET, PLT, HGB, HCT)” value ([3]; 600R or 400R X-radiation, pre-administration 100 µg, compared with control group, summary of Table 4) was “apparently improved”, the toxicity (ddy male mice; 50 mg/kg subcutaneously for consecutive 14 days) was “No toxicity was observed” and the “toxicity (external check)” value (ddy male mice; 100 mg/kg subcutaneously every day for consecutive 14 days, mice) was “no abnormal symptom was found by external check”. The toxicity (ddy male mice; 100 mg/kg subcutaneously for consecutive 14 days) was “No toxicity was observed”, the “body weight (g) [Mean ± S.D.]” value ([4]; 1 day after irradiation) was 27.8±1.5 (15) g and the “body weight (g) [Mean ± S.D.]” value ([4]; 3 days after irradiation) was 27.7±1.1 (15) g. For the same compound, the “body weight (g) [Mean ± S.D.]” value ([4]; 5 days after irradiation) was 27.9±1.1 (15) g, the “body weight (g) [Mean ± S.D.]” value ([4]; 7 days after irradiation) was 28.8±1.2 (10) g and the “body weight (g) [Mean ± S.D.]” value ([4]; 9 days after irradiation) was 29.8±1.0 (10) g. The “body weight (g) [Mean ± S.D.]” value ([4]; 11 days after irradiation) was 30.2±0.9 (10) g, the “body weight (g) [Mean ± S.D.]” value ([4]; 13 days after irradiation) was 29.6±0.7 (10) g and the “body weight (g) [Mean ± S.D.]” value ([4]; 15 days after irradiation) was 28.3±0.8 (10) g. The “body weight (g) [Mean ± S.D.]” value ([4]; 17 days after irradiation) was 28.2±1.0 (10) g, the “body weight (g) [Mean ± S.D.]” value ([4]; 19 days after irradiation) was 29.1±0.8 (10) g and the “body weight (g) [Mean ± S.D.]” value ([4]; 29 days after irradiation) was 28.5±1.4 (10) g. The “body weight versus control group” value ([4]; 600R X-rays, summary of Table 5) was “evidently weighed more than the control group”, the “development of radiation-induced cancers” value [5] was “inhibits the development of radiation-induced cancers in mice” and the “inhibition of body-weight loss” value (mice; compared with the control group) was “significant inhibition of body-weight loss”. The “% survival” value (mice; over a period of thirty days, depending on the dose of radiation, all mice in control group died) was 40 - 100%, the life span-extending effect (mice; versus control group) was “significant or marked life span-extending effect” and the “The number of days and survivals after X-radiation 9 (days)” value ([6]; 900R X-rays, post-administration 100 µg/day s.c., twelve times in all (days 0-5, 7-12), day 9, 15 animals used) was 15. The “The number of days and survivals after X-radiation 10 (days)” value ([6]; 900R X-rays, post-administration 100 µg/day s.c., twelve times in all (days 0-5, 7-12), day 10, 15 animals used) was 13, the “The number of days and survivals after X-radiation 11 (days)” value ([6]; 900R X-rays, post-administration 100 µg/day s.c., twelve times in all (days 0-5, 7-12), day 11, 15 animals used) was 12 and the “The number of days and survivals after X-radiation 12 (days)” value ([6]; 900R X-rays, post-administration 100 µg/day s.c., twelve times in all (days 0-5, 7-12), day 12, 15 animals used) was 12. The “The number of days and survivals after X-radiation 13 (days)” value ([6]; 900R X-rays, post-administration 100 µg/day s.c., twelve times in all (days 0-5, 7-12), day 13, 15 animals used) was 7, the “The number of days and survivals after X-radiation 14 (days)” value ([6]; 900R X-rays, post-administration 100 µg/day s.c., twelve times in all (days 0-5, 7-12), day 14, 15 animals used) was 4 and the “The number of days and survivals after X-radiation 15 (days)” value ([6]; 900R X-rays, post-administration 100 µg/day s.c., twelve times in all (days 0-5, 7-12), day 15, 15 animals used) was 3. The “The number of days and survivals after X-radiation 16 (days)” value ([6]; 900R X-rays, post-administration 100 µg/day s.c., twelve times in all (days 0-5, 7-12), day 16, 15 animals used) was 2, the “The number of days and survivals after X-radiation 18 (days)” value ([6]; 900R X-rays, post-administration 100 µg/day s.c., twelve times in all (days 0-5, 7-12), day 18, 15 animals used) was 2 and the “The number of days and survivals after X-radiation 20 (days)” value ([6]; 900R X-rays, post-administration 100 µg/day s.c., twelve times in all (days 0-5, 7-12), day 20, 15 animals used) was 2. For the same compound, the “The number of days and survivals after X-radiation 21 (days)” value ([6]; 900R X-rays, post-administration 100 µg/day s.c., twelve times in all (days 0-5, 7-12), day 21, 15 animals used) was 1, the “The number of days and survivals after X-radiation 23 (days)” value ([6]; 900R X-rays, post-administration 100 µg/day s.c., twelve times in all (days 0-5, 7-12), day 23, 15 animals used) was 0 and the life span extension ([6]; 900R, 100 µg/day s.c. twelve times after X-radiation, summary of Table 2) was “exhibited a life span extension”.
